This passage reports inhibition results from patent US20090118332A1, “Therapeutic Agents - 551” (AstraZeneca AB, priority 2006, published 2009).

The assay concerns the target T1, human Fatty Acid Synthase (Homo sapiens, UniProt P49327).
T1 construct: made in house
In words: Human FAS enzyme assay (decrease in NADPH fluorescence). Format: biochemical. As to conditions: % inhibition at a concentration of 100 μmolar. The method, boiled down: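 In-house human FAS was preincubated with compound and NADPH for 15 min at room temperature in 0.1 M Tris pH 7.5 with EDTA, glutathione and BSA. Malonyl CoA and acetyl CoA (500 μM and 150 μM in the added mix) were then added for 60 min. IC50 came from time-zero-subtracted NADPH fluorescence (340/460 nm).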

T1 sequence (P49327 whole entry): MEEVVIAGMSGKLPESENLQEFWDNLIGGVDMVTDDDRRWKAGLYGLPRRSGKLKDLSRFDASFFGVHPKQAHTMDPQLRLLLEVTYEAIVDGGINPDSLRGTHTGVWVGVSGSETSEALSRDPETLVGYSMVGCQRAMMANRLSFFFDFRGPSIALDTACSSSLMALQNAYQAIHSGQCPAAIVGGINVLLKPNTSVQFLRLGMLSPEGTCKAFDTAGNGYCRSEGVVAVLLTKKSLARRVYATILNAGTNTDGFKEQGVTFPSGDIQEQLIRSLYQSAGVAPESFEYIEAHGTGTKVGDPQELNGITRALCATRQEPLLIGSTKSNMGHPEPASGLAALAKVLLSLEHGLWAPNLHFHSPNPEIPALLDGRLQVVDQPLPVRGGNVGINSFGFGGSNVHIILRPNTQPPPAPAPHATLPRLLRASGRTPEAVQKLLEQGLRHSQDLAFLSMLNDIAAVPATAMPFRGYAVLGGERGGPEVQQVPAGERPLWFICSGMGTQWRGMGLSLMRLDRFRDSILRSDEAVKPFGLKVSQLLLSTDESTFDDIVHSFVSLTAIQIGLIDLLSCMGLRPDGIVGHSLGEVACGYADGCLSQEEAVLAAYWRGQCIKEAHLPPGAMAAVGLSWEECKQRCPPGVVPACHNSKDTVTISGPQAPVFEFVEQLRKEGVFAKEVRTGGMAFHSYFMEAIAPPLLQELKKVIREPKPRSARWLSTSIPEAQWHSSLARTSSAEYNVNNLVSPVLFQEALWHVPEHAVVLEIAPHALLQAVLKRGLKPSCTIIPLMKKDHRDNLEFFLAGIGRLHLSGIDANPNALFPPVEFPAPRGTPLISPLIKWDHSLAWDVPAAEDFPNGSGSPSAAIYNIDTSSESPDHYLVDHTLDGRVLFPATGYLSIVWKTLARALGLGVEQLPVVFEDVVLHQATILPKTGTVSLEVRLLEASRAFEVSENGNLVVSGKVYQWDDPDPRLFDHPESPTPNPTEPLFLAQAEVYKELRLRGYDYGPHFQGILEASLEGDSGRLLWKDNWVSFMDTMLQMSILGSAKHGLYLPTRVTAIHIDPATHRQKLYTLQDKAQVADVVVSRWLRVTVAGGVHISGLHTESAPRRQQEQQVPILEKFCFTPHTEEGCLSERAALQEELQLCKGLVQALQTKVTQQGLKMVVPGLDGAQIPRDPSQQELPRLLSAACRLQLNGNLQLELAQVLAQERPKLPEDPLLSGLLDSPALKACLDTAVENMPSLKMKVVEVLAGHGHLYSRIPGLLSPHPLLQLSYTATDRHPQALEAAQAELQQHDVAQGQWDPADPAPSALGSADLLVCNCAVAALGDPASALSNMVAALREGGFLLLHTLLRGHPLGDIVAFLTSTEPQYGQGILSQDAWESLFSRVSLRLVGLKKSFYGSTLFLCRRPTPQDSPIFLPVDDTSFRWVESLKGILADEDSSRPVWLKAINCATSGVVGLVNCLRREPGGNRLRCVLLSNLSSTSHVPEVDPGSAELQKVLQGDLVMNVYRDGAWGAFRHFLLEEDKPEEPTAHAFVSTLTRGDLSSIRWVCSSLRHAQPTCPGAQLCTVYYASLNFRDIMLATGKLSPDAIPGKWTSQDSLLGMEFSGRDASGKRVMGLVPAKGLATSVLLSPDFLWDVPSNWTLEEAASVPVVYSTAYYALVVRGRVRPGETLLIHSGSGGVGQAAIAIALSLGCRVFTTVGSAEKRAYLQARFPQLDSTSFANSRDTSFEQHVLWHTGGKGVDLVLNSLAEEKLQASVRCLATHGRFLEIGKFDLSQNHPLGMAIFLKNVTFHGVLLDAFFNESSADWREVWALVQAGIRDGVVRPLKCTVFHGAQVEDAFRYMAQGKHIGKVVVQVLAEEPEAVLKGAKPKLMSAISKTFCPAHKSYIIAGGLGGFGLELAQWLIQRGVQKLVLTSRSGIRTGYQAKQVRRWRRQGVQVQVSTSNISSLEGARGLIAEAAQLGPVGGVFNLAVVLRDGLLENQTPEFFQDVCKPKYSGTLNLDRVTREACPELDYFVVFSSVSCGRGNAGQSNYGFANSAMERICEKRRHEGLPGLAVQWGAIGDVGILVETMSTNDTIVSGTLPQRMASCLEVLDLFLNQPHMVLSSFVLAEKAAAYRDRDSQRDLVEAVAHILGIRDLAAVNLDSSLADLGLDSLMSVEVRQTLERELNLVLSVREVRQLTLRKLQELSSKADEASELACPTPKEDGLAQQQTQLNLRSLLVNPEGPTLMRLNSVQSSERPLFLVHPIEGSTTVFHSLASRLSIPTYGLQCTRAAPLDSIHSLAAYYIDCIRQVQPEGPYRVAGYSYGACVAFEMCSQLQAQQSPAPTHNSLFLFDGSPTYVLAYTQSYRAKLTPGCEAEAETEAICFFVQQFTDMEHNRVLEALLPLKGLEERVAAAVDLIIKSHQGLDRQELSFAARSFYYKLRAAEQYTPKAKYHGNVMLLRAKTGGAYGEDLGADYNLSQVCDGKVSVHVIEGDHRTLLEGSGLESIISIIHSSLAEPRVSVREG

Regarding `Cc1ccc(C(=O)N2CCC(c3ccc(C#N)cc3)CC2)cc1NC(=O)NCC1CCCCO1` (stereo not shown) [Example 166, 1-[5-[4-(4-cyanophenyl)piperidine-1-carbonyl]-2-methyl-phenyl]-3-(oxan-2-ylmethyl)urea], the inhibition at 100 µM is 94.7%.

`Cc1ccc(C(=O)N2CCC(c3ccc(C#N)cc3)CC2)cc1NC(=O)NCC#N` [Example 167, 3-(cyanomethyl)-1-[5-[4-(4-cyanophenyl)piperidine-1-carbonyl]-2-methyl-phenyl]urea] yielded an inhibition at 100 µM of 90.3%.

In the case of `Cc1ccc(C(=O)N2CCC(c3ccc(C#N)cc3)CC2)cc1NC(=O)NCC(F)(F)F` [Example 168, 1-[5-[4-(4-cyanophenyl)piperidine-1-carbonyl]-2-methyl-phenyl]-3-(2,2,2-trifluoroethyl)urea], the inhibition at 100 µM stood at 84.6%.

`Cc1ccc(C(=O)N2CCC(c3ccc(C#N)cc3)CC2)cc1NC(=O)NC1CCS(=O)(=O)C1` (stereo not shown) [Example 169, 1-[5-[4-(4-cyanophenyl)piperidine-1-carbonyl]-2-methyl-phenyl]-3-(1,1-dioxothiolan-3-yl)urea] gave an inhibition at 100 µM of 95.6%.

Compound `Cc1ccc(C(=O)N2CCC(c3ccc(C#N)cc3)CC2)cc1NC(=O)NCCC(=O)Nc1ccccn1` [Example 170, 3-[[5-[4-(4-cyanophenyl)piperidine-1-carbonyl]-2-methyl-phenyl]carbamoylamino]-N-pyridin-2-yl-propanamide] displayed an inhibition at 100 µM of 94.6%.

`Cc1ccc(C(=O)N2CCC(c3ccc(C#N)cc3)CC2)cc1NC(=O)NCC(=O)NC(C)C` [Example 171, 2-[[5-[4-(4-cyanophenyl)piperidine-1-carbonyl]-2-methyl-phenyl]carbamoylamino]-N-propan-2-yl-acetamide] gave an inhibition at 100 µM of 96.3%.

In turn, `CCCCNC(=O)NCCNC(=O)Nc1cc(C(=O)N2CCC(c3ccc(C#N)cc3)CC2)ccc1C` [Example 172, 1-butyl-3-[2-[[5-[4-(4-cyanophenyl)piperidine-1-carbonyl]-2-methyl-phenyl]carbamoylamino]ethyl]urea] had an inhibition at 100 µM of 91.8%.

Take `Cc1ccc(C(=O)N2CCC(c3ccc(C#N)cc3)CC2)cc1NC(=O)NCCCCCNC(=O)N1CCOCC1` [Example 173, N-[5-[[5-[4-(4-cyanophenyl)piperidine-1-carbonyl]-2-methyl-phenyl]carbamoylamino]pentyl]morpholine-4-carboxamide]: the inhibition at 100 µM was 95.5%.

For `CCCS(=O)(=O)NCCNC(=O)Nc1cc(C(=O)N2CCC(c3ccc(C#N)cc3)CC2)ccc1C` [Example 174, 3-[5-[4-(4-cyanophenyl)piperidine-1-carbonyl]-2-methyl-phenyl]-1-[2-(propylsulfonylamino)ethyl]urea], 100 µM produced 97.4% inhibition.

Consider `Cc1ccc(C(=O)N2CCC(c3ccc(C#N)cc3)CC2)cc1NC(=O)NCCNC(=O)C1CCCCC1` [Example 175, N-[2-[[5-[4-(4-cyanophenyl)piperidine-1-carbonyl]-2-methyl-phenyl]carbamoylamino]ethyl]cyclohexanecarboxamide], for which the inhibition at 100 µM was 96.1%.

For the compound `Cc1ccc(C(=O)N2CCC(c3ccc(C#N)cc3)CC2)cc1NC(=O)NCCN1CCCC1=O` [Example 176, 1-[5-[4-(4-cyanophenyl)piperidine-1-carbonyl]-2-methyl-phenyl]-3-[2-(2-oxopyrrolidin-1-yl)ethyl]urea], testing at 100 µM gave an inhibition of 92.6%.

For the compound `COC(=O)[C@H](CNC(=O)Nc1cc(C(=O)N2CCC(c3ccc(C#N)cc3)CC2)ccc1C)NC(=O)OC(C)(C)C` [Example 177, Methyl (2S)-3-[[5-[4-(4-cyanophenyl)piperidine-1-carbonyl]-2-methyl-phenyl]carbamoylamino]-2-[(2-methylpropan-2-yl)oxycarbonylamino]propanoate], the inhibition at 100 µM amounted to 94.8%.

`Cc1ccc(C(=O)N2CCC(c3ccc(C#N)cc3)CC2)cc1NC(=O)NCCCN1CCCCCC1=O` [Example 178, 1-[5-[4-(4-cyanophenyl)piperidine-1-carbonyl]-2-methyl-phenyl]-3-[3-(2-oxoazepan-1-yl)propyl]urea] had an inhibition at 100 µM of 95.9%.
